Test results published in ChEMBL document CHEMBL4715821, “Discovery of 4-ethoxy-7H-pyrrolo[2,3-d]pyrimidin-2-amines as potent, selective and orally bioavailable LRRK2 inhibitors” (Bioorg Med Chem Lett, 2018).

Key:
[1] = target: Serine/threonine-protein kinase LATS2 (Homo sapiens) (UniProt Q9NRM7); assay: Inhibition of wild-type human partial length LATS2 (Q641 to V1088 residues) expressed in mammalian expression system assessed as residual activity at 1 uM by Kinomescan method relative to control
[2] = target: Ephrin type-B receptor 2 (Homo sapiens) (UniProt P29323); assay: Inhibition of wild-type human partial length EPHB2 (I597 to L902 residues) expressed in bacterial expression system assessed as residual activity at 1 uM by Kinomescan method relative to control
[3] = target: Inhibitor of nuclear factor kappa-B kinase subunit epsilon (Homo sapiens) (UniProt Q14164); assay: Inhibition of wild-type human full length IKK-epsilon (M1 to V716 residues) expressed in mammalian expression system assessed as residual activity at 1 uM by Kinomescan method relative to control
[4] = target: Calcium/calmodulin-dependent protein kinase kinase 1 (Homo sapiens) (UniProt Q8N5S9); assay: Inhibition of wild-type human partial length CAMKK1 (R65 to E414 residues) expressed in bacterial expression system assessed as residual activity at 1 uM by Kinomescan method relative to control
Chain of Calcium/calmodulin-dependent protein kinase kinase 1 (Homo sapiens) (Q8N5S9 whole entry, looked up, the tested form may be a part): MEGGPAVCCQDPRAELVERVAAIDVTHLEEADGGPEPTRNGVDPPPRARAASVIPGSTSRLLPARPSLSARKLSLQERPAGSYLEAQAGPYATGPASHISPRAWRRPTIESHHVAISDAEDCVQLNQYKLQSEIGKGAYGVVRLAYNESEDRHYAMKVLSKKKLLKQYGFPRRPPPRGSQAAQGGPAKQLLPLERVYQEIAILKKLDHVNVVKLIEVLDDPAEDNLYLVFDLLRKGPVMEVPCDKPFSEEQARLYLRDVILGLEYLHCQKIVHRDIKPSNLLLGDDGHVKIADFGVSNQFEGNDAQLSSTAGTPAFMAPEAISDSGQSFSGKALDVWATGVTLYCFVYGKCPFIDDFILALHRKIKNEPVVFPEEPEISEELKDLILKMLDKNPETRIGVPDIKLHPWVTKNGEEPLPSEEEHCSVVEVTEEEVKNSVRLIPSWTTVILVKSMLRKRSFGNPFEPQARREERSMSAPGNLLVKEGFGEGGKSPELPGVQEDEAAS

[5] = target: Vascular endothelial growth factor receptor 2 (Homo sapiens) (UniProt P35968); assay: Inhibition of wild-type human partial length VEGFR2 (R787 to P1253 residues) expressed in mammalian expression system assessed as residual activity at 1 uM by Kinomescan method relative to control
[6] = target: Casein kinase II subunit alpha' (Homo sapiens) (UniProt P19784); assay: Inhibition of CK2a2 (unknown origin) assessed as residual activity at 1 uM by Kinomescan method relative to control
[7] = target: Death-associated protein kinase 2 (Homo sapiens) (UniProt Q9UIK4); assay: Inhibition of wild type human full length DAPK2 (M1 to S370 residues) expressed in bacterial expression system assessed as residual activity at 1 uM by Kinomescan method relative to control
[8] = target: Myotonin-protein kinase (Homo sapiens) (UniProt Q09013); assay: Inhibition of wild-type human partial length DMPK (V47 to V415 residues) expressed in bacterial expression system assessed as residual activity at 1 uM by Kinomescan method relative to control
Chain of Myotonin-protein kinase (Homo sapiens) (Q09013 whole entry, the tested form may be a part): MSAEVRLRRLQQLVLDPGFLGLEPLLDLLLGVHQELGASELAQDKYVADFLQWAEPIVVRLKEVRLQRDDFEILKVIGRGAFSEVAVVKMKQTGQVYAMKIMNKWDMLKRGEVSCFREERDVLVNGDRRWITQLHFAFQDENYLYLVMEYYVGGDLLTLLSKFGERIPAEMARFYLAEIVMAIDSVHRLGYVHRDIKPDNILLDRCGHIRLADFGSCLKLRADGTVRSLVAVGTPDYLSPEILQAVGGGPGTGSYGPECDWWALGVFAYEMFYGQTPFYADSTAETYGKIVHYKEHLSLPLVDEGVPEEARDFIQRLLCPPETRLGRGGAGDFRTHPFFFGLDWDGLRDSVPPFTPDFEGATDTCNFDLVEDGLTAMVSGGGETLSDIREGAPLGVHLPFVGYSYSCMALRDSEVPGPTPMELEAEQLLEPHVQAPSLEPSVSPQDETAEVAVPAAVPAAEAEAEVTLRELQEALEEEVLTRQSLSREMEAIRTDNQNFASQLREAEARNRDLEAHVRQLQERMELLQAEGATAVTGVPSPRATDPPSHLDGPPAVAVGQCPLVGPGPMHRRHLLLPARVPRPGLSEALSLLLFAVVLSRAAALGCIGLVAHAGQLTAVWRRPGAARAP

[9] = target: Serine/threonine-protein kinase A-Raf (Homo sapiens) (UniProt P10398); assay: Inhibition of ARAF (unknown origin) assessed as residual activity assessed as residual activity at 1 uM relative to control
Chain of Serine/threonine-protein kinase A-Raf (Homo sapiens) (P10398 whole entry, the tested form may be a part): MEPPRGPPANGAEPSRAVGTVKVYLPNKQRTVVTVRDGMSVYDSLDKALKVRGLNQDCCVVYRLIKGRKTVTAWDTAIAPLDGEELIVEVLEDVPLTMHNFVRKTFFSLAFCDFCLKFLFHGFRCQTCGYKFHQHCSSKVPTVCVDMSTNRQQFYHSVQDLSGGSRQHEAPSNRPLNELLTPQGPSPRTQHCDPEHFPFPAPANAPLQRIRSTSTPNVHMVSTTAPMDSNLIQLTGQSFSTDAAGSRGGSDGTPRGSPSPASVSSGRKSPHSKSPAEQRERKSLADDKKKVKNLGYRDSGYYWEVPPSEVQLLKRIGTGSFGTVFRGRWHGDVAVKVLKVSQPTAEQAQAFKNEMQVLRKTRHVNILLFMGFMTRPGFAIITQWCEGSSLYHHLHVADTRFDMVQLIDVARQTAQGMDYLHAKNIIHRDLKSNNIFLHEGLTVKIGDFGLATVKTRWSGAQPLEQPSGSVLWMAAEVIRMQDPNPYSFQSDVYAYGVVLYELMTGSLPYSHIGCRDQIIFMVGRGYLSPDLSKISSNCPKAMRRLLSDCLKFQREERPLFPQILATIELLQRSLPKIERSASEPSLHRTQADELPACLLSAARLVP

[10] = target: Dual specificity protein kinase CLK2 (Homo sapiens) (UniProt P49760); assay: Inhibition of wild-type human partial length CLK2 (D144 to R498 residues) expressed in bacterial expression system assessed as residual activity at 1 uM by Kinomescan method relative to control
[11] = target: CDK9/Cyclin K (Homo sapiens) (UniProt P50750+O75909); assay: Inhibition of wild-type human full length CDK9 (M1 to F372 residues)/cyclin K expressed in bacterial expression system assessed as residual activity at 1 uM by Kinomescan method relative to control
[12] = target: Mitogen-activated protein kinase 12 (Homo sapiens) (UniProt P53778); assay: Inhibition of wild-type human full length p38-gamma (M1 to L367 residues) expressed in mammalian expression system assessed as residual activity at 1 uM by Kinomescan method relative to control
[13] = target: Tyrosine-protein kinase TXK (Homo sapiens) (UniProt P42681); assay: Inhibition of wild-type human partial length TXK (L238 to W527 residues) expressed in bacterial expression system assessed as residual activity at 1 uM by Kinomescan method relative to control
[14] = target: Dual specificity tyrosine-phosphorylation-regulated kinase 1A (Homo sapiens) (UniProt Q13627); assay: Inhibition of wild-type human partial length DYRK1A (H129 to S509 residues) expressed in mammalian expression system assessed as residual activity at 1 uM by Kinomescan method relative to control
[15] = target: Epidermal growth factor receptor (Homo sapiens) (UniProt P00533); assay: Inhibition of wild-type human partial length EGFR (R669 to V1011 residues) expressed in bacterial expression system assessed as residual activity at 1 uM by Kinomescan method relative to control
Chain of Epidermal growth factor receptor (Homo sapiens) (P00533 whole entry, the tested form may be a part): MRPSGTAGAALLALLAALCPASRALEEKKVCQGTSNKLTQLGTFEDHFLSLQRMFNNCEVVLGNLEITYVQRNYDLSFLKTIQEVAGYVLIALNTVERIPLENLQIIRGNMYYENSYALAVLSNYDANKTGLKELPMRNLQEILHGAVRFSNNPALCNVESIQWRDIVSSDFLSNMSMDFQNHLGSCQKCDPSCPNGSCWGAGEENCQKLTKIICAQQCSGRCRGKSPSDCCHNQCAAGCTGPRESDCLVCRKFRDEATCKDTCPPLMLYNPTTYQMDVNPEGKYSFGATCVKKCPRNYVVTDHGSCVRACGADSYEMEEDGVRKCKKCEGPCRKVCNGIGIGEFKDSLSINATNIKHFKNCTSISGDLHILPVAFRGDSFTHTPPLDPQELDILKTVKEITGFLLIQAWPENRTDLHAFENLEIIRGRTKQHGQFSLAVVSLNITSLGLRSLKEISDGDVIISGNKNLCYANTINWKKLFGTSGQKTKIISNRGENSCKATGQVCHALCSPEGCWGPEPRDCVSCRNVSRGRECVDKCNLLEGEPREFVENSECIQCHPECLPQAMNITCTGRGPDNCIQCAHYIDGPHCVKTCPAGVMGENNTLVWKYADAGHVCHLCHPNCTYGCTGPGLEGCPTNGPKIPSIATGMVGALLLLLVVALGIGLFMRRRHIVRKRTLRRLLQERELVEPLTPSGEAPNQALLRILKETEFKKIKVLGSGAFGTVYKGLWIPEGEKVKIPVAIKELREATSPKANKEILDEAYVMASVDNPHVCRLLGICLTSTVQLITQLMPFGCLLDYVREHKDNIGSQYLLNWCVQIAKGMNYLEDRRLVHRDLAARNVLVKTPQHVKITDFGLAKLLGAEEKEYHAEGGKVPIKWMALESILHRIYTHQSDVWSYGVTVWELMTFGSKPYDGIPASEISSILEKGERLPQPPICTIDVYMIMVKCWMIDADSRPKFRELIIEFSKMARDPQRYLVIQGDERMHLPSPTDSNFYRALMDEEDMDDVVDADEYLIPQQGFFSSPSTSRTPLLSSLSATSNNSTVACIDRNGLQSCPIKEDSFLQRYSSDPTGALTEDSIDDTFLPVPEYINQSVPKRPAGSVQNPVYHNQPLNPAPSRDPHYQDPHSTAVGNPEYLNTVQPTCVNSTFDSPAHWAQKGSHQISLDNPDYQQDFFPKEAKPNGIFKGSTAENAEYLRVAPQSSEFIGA

[16] = target: Tyrosine-protein kinase JAK3 (Homo sapiens) (UniProt P52333); assay: Inhibition of wild type human partial length JAK3 (I781 to S1124 residues) expressed in mammalian expression system assessed as residual activity at 1 uM by Kinomescan method relative to control
[17] = target: Dual specificity mitogen-activated protein kinase kinase 6 (Homo sapiens) (UniProt P52564); assay: Inhibition of MKK6 (unknown origin) assessed as residual activity at 1 uM by Kinomescan method relative to control
Chain of Dual specificity mitogen-activated protein kinase kinase 6 (Homo sapiens) (P52564 whole entry, the tested form may be a part): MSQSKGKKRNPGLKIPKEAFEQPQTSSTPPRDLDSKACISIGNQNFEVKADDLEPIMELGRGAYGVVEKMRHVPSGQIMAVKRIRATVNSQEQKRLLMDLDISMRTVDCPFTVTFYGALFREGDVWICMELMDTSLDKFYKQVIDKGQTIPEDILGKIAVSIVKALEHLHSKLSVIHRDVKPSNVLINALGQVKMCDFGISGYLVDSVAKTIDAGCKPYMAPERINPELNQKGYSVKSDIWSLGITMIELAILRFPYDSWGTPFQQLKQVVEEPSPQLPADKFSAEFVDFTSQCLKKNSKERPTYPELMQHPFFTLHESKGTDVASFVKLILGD

[18] = target: Ephrin type-A receptor 7 (Homo sapiens) (UniProt Q15375); assay: Inhibition of wild-type human partial length EPHA7 (Y608 to S912 residues) expressed in bacterial expression system assessed as residual activity at 1 uM by Kinomescan method relative to control
[19] = target: Serine/threonine-protein kinase N2 (Homo sapiens) (UniProt Q16513); assay: Inhibition of wild-type human partial length PKN2 (E634 to C984 residues) expressed in bacterial expression system assessed as residual activity at 1 uM by Kinomescan method relative to control
[20] = target: Dual specificity tyrosine-phosphorylation-regulated kinase 4 (Homo sapiens) (UniProt Q9NR20); assay: Inhibition of DYRK4 (unknown origin) assessed as residual activity at 1 uM by Kinomescan method relative to control
[21] = target: CDK1/Cyclin E (Homo sapiens) (UniProt P06493+P24864); assay: Inhibition of CDK1/Cyclin E (unknown origin) assessed as residual activity at 1 uM by Kinomescan method relative to control; assay type: protein-complex assay
[22] = target: Serine/threonine-protein kinase 4 (Homo sapiens) (UniProt Q13043); assay: Inhibition of wild-type human full length MST1 (M1 to F487 residues) expressed in bacterial expression system assessed as residual activity at 1 uM by Kinomescan method relative to control
[23] = target: Casein kinase I isoform gamma-2 (Homo sapiens) (UniProt P78368); assay: Inhibition of CK1g2 (unknown origin) assessed as residual activity at 1 uM by Kinomescan method relative to control
[24] = target: Ephrin type-A receptor 5 (Homo sapiens) (UniProt P54756); assay: Inhibition of wild-type human partial length EPHA5 (T627 to V930 residues) expressed in bacterial expression system assessed as residual activity at 1 uM by Kinomescan method relative to control
[25] = target: Serine/threonine-protein kinase Chk2 (Homo sapiens) (UniProt O96017); assay: Inhibition of CHK2 (unknown origin) assessed as residual activity at 1 uM by Kinomescan method relative to control
Chain of Serine/threonine-protein kinase Chk2 (Homo sapiens) (O96017 whole entry): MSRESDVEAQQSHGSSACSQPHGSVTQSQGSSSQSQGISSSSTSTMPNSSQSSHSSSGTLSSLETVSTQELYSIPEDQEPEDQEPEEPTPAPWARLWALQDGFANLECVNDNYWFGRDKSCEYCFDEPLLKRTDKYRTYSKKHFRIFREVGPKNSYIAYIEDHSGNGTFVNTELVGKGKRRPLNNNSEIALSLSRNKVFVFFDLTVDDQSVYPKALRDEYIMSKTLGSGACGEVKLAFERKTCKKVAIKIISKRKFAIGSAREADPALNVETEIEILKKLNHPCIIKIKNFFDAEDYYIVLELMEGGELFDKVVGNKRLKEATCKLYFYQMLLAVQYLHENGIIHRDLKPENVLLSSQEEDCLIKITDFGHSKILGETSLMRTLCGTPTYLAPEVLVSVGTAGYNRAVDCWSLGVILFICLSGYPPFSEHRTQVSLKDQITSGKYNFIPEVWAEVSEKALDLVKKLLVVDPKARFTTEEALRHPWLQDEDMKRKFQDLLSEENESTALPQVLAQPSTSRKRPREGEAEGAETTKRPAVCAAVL

[26] = In vivo inhibition of LRRK2 in Han-Wistar rat assessed as reduction in Ser935 phosphorylation in brain at 100 mg/kg, po by Western blot analysis; assay type: functional; parameters: scale not given: the % may be the effect or the level left
[27] = target: Receptor-type tyrosine-protein kinase FLT3 (Homo sapiens) (UniProt P36888); assay: Inhibition of wild-type human partial length FLT3 (V592 to Y969 residues) expressed in bacterial expression system assessed as residual activity at 1 uM by Kinomescan method relative to control
Chain of Receptor-type tyrosine-protein kinase FLT3 (Homo sapiens) (P36888 whole entry, the tested form may be a part): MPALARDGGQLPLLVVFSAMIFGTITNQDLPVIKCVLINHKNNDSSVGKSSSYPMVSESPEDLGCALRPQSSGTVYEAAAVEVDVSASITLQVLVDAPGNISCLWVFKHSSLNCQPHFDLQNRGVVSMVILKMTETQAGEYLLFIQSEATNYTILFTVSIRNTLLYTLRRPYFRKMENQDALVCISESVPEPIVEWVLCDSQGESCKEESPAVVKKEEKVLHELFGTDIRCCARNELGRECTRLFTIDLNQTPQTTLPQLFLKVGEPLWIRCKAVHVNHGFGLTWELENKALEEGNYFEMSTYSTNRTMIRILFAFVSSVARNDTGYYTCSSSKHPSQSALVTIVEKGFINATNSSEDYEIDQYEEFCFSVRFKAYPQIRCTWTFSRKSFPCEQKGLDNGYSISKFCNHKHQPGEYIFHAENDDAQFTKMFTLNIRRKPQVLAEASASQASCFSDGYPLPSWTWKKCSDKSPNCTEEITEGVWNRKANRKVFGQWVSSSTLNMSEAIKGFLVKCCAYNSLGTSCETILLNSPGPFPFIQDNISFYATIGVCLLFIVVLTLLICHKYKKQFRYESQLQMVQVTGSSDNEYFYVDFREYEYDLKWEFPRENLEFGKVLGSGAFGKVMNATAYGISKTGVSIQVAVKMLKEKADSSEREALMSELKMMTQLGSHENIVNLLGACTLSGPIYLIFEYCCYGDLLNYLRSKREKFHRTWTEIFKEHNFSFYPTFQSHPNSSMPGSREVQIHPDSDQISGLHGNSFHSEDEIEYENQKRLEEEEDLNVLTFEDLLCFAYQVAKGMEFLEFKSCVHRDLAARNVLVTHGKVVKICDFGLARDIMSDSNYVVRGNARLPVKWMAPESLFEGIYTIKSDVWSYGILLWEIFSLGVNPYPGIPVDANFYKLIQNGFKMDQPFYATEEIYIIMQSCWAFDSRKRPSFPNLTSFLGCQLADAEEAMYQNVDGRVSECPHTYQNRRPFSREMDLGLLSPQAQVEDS

CCOc1nc(Nc2ccc(C(=O)N3CCOCC3)cc2OC)nc2[nH]ccc12
Activity [1]: 96.3% | Activity [2]: 95.3% | Activity [3]: 88.8% | Activity [4]: 101% | Activity [5]: 97.7% | Activity [6]: 86.1% | Activity [7]: 137% | Activity [8]: 103% | Activity [9]: 95.9% | Activity [10]: 28.3% | Activity [11]: 103% | Activity [12]: 103% | Activity [13]: 88% | Activity [14]: 72.2% | Activity [15]: 99.6% | Activity [16]: 109% | Activity [17]: 63.1% | Activity [18]: 97.8% | Activity [19]: 101% | Activity [20]: 94.6% | Activity [21]: 96.4% | Activity [22]: 99.8% | Activity [23]: 95.6% | Activity [24]: 103% | Activity [25]: 16.8% | Activity [26]: 75% | Activity [27]: 92.6%
